Assay results: paper PMC3581553, “New Approaches of PARP-1 Inhibitors in Human Lung Cancer Cells and Cancer Stem-Like Cells by Some Selected Anthraquinone-Derived Small Molecules” (PLoS ONE, 2013)
Read-outs that look alike come from different tables or passages of the source.

Columns and labels:
[1] = tested on: Oct-4- and Nanog-overexpressed A549 clone (A3); assay: MTT cytotoxicity assay, A3 cells; assay type: cell-based; conditions: Homo sapiens, 48 h of drug exposure
Protocol: (§1) Non-small cell lung cancer cells A549 and Oct-4- and Nanog-overexpressed A549 clone (clone #3; A3), presented the properties of cancer stem-like cells, as well as epithelial-mesenchymal transdifferentiation, according to our previous study. They were grown in the same conditions as RPMI 1640 media supplemented with 10% fetal bovine serum (FBS), 100 units/mL penicillin, […] streptomycin, 1 mM sodium pyruvate, 2 mM l-glutamine and 1% non-essential amino acid (NEAA) in a humidified atmosphere with 5% CO2 at 37°C. Normal fibroblast cells HEL299 from American Type Culture Collection (ATCC) were grown in MEM media supplemented with 10% FBS, 100 units/mL penicillin, […] streptomycin, 1 mM sodium pyruvate, 2 mM l-glutamine and 1% NEAA, in a humidified atmosphere with 5% CO2 at 37°C.
(§2) The tetrazolium reagent (MTT; 3-(4,5-dimethylthiazol-2-yl)-2,5-diphenyl-tetrazolium bromide, USB) was designed to yield a colored formazan upon metabolic reduction by viable cells, [61]. Approximately 5×10^4 cells were plated onto each well of a 24-well plate and incubated in 5% CO2 at 37°C for 24 hours. To assess the in vitro cytotoxicity, each compound was dissolved in DMSO and prepared immediately before the experiments and then was diluted into the complete medium before being added to cell cultures. Test compounds were then added to the culture medium in various designated concentrations. After 48 hours, an amount of 100 µl of MTT was added to each well, and the samples were incubated at 37°C for 2 h. 100 µl DMSO was added to each well. The absorbency at 560 nm and reference absorbency at 670 nm were measured using an ELISA reader.

EKVX = assay: NCI-60 drug screen (SRB), NSCLC line EKVX; assay type: cell-based, human
Protocol: (§3) As a primary screening, seven selected compounds were submitted to the National Cancer Institute (NCI) cell lines screen for evaluation of their anticancer activity. From the data analysis, it follows that approximately 95% of the actives from the 60 cell lines screen can be identified. The detailed methods used for the 60 cell lines panel have been described elsewhere [54]–[59]. Briefly, cellular protein levels were determined after 48 hours of drug exposure by SRB colorimetry. Through the use of a time zero cell control, the cell growth can be determined for each cell line thus allowing calculations of GI50, TGI, and LC50. Comparison to plates not exposed to drug permits determination of concentration and times of exposure conferring GI50, TGI, and LC50. […] By these criteria, seven compounds reported from our compounds bank were all active and passed on for evaluation in the full panel of 60 human tumor cell lines. The panel is organized into nine subpanels representing diverse histology: leukemia, melanoma, and cancers of the lung, colon, kidney, ovary, breast, prostate, and central nervous system.

NCI-H226 = assay: NCI-60 drug screen (SRB), NSCLC line NCI-H226; assay type: cell-based, human
Protocol: as §3

A549 cells = assay: MTT cytotoxicity assay, A549 cells; assay type: cell-based; conditions: Homo sapiens, 48 h of drug exposure
Protocol: as §1, §2

NCI-H460 = assay: NCI-60 drug screen (SRB), NSCLC line NCI-H460; assay type: cell-based, human
Protocol: as §3

PARP-1 = target: T1, PARP-1 (Homo sapiens, UniProt P09874); assay: PARP inhibitory assay (histone-coated plate, colorimetric); assay type: biochemical
T1 construct: purchased
T1 sequence (P09874 whole entry): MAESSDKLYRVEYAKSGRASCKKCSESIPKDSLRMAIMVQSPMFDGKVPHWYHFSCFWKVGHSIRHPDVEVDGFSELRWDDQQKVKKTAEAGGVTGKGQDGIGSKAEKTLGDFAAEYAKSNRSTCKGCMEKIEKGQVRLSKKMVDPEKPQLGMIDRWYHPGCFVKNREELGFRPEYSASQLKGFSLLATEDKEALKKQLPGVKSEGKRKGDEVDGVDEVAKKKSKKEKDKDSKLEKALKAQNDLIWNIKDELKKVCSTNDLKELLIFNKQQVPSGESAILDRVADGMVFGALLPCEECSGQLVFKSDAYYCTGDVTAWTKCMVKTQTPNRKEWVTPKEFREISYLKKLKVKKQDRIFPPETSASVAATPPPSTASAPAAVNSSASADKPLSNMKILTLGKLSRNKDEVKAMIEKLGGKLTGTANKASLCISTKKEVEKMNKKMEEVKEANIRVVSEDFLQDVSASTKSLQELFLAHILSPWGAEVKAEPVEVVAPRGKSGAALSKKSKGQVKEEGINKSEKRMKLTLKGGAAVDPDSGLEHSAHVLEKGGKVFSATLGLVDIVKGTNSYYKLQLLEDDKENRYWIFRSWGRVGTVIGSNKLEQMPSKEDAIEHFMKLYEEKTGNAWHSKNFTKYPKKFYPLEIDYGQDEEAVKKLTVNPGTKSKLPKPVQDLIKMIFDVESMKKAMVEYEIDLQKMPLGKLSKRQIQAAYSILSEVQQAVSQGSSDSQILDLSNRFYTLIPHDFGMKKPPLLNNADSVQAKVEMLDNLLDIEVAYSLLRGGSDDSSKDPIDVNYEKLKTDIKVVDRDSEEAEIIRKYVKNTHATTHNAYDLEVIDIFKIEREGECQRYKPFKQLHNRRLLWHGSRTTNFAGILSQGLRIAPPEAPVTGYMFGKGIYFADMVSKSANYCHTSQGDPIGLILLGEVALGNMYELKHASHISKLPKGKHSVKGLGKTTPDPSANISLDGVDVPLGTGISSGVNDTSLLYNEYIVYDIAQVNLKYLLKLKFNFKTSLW
Protocol: We used histone-coated 96-well plate treated with seven putative PARP-1 inhibitors or well-known PARP-1 inhibitors (3-AB), and then added PARP enzyme to each well. PARP enzyme catalyzes the NAD-dependent addition of poly (ADP-ribose) to histone, and diluted Strp-HRP could bind to PARylation histone. TACS-Sapphire™ yielded blue under the HRP existence. In order to systematically evaluate the potential anticancer activity, the compounds were tested for their cytotoxicity in vitro against 60 human cancer lines in the NCI anticancer drug screen as well as for dose response curves and telomerase activity. Cell growth was analyzed by the MTT assay, with differences between dose-response curves analyzed non-parametrically. Telomerase activity was detected by a modified version of the PCR-based assay and TRAP assay. […] However, PARP inhibitory effects had no difference at 1 and 10 µM. As described above, NSC746364, NSC746366 and NSC749232 show dose-dependency only at low concentrations. […] NSC747854 had dose-dependent PARP inhibitory manners at three different concentrations, and reached the maximum inhibitory effect of 86% at 10 µM (Table 4). […] In this investigation, we continued to focus our attention on the role of NSC747854 and to understand the basis of pharmacophore selectivity. Of particular note is the significant difference with these selected compounds, compared with that of 3-AB and PJ-34. […] An electron-rich aromatic ring system, including a carboxamide group, should have at least a hydrogen atom on the amide nitrogen. The amidinium moiety is known to contribute to the stabilization of DNA recognition element through electrostatic and hydrogen bonding interactions. Therefore, hydrogen bonds are frequently used as recognition elements due to their directionality and also due to being attractive factors to the biological activity (Figure 1). Many classes of drugs have substantial curvature, high DNA affinity, binding to the minor-groove or major-groove, interference with DNA-associated enzymes (e.g. telomerase), and Poly (ADP-ribose) polymerase, PARP. […] This approach greatly expands the utility of the substituents and related pharmacophore for the construction of drugs in general. Therefore, it is desirable to design PARP inhibitors in accordance with various anticancer parameters. It was first reported that anthraquinone analogues are potent human PARP inhibitors.
Strip wells were removed from the wrapper and 50 µl of 1X PARP Buffer was added to each well to rehydrate the histones. They were incubated at room temperature for 30 minutes. The 1X PARP buffer was removed from the wells by tapping the strip wells on paper towels. The serial dilutions of inhibitor of interest were added to appropriate wells. The diluted PARP enzyme (0.5 unit/well) was then added to the wells containing inhibitor. They were incubated for 10 minutes at room temperature. The PARP Enzyme-High Specific Activity (PARP-HAS) standard was serially diluted in cold micro-tubes with 1X PARP buffer such that the total activity was 1 unit/25 µl, 0.5 units/25 µl, 0.25 units/25 µl, 0.1 units/25 µl, 0.05 units/25 µl, 0.025 units/25 µl, and 0.01 units/25 µl, respectively. The 25 µl of each standard was added to triplicate wells. The 25 µl of 1X PARP cocktail were distributed into each well by using a multichannel pipettor. The final reaction volume is 50 µl. They were incubated along with the strip wells at room temperature for 60 minutes. The strip wells were washed 2 times with 1X PBS +0.1% Triton X-100 (200 µl/well) followed by 2 washes with 1X PBS. All the liquid was removed following each wash by tapping strip wells onto paper towels. The 50 µl diluted Strep-HRP were added per well. They were incubated at room temperature for 60 minutes. The strip wells were washed 2 times with 1X PBS +0.1% Triton X-100 (200 µl/well) followed by 2 washes with 1X PBS. All the liquid was removed following each wash by tapping strip wells onto paper towels. […]

NCI-H23 = assay: NCI-60 drug screen (SRB), NSCLC line NCI-H23; assay type: cell-based, human
Protocol: as §3

A549/ATCC = assay: NCI-60 drug screen (SRB), NSCLC line A549/ATCC; assay type: cell-based, human
Protocol: as §3

HOP-62 = assay: NCI-60 drug screen (SRB), NSCLC line HOP-62; assay type: cell-based, human
Protocol: as §3

NCI-H322M = assay: NCI-60 drug screen (SRB), NSCLC line NCI-H322M; assay type: cell-based, human
Protocol: as §3

HEL299 cells = assay: MTT cytotoxicity assay, HEL299 normal fibroblasts; assay type: cell-based; conditions: Homo sapiens, HEL 299, 48 h of drug exposure
Protocol: as §1, §2

NCI-H522 = assay: NCI-60 drug screen (SRB), NSCLC line NCI-H522; assay type: cell-based, human
Protocol: as §3

[2] = Homo sapiens, 48 hours drug exposure, SRB
[3] = Homo sapiens, 48 hours drug exposure, SRB, read-out: GI50
[4] = Homo sapiens, NCI in vitro 60-cell lines Drug Screen, read-out: -Log GI50 (converted)
[5] = Homo sapiens, 48 hours drug exposure, SRB, read-out: LC50 (the source's name)

O=C1c2ccccc2C(=O)c2c1ccc1nc(SCCN3CCCC3)[nH]c21 [NSC747515]
IC50 [1]: 7.05 µM | TGI (EKVX; 48 hours drug exposure, SRB): 26.5 µM | LC50 (EKVX; [2]): 62.4 µM | GI50 (EKVX; [3]): 11.2 µM | GI50 (EKVX; [4]): 11.2 µM | TGI (NCI-H226; 48 hours drug exposure, SRB): 36.6 µM | GI50 (NCI-H226; [3]): 19.3 µM | CC50 (NCI-H226; [5]): 69.7 µM | GI50 (NCI-H226; [4]): 19.5 µM | IC50 (A549 cells): 11.8 µM | TGI (NCI-H460; 48 hours drug exposure, SRB): 4.77 µM | LC50 (concentration killing 50% of cells) (NCI-H460; [2]): 29.3 µM | GI50 (NCI-H460; [3]): 1.68 µM | GI50 (NCI-H460; [4]): 1.7 µM | inhibition at 0.1 µM (PARP-1): 20% | inhibition at 1 µM (PARP-1): 22% | inhibition at 10 µM (PARP-1): 24% | TGI (NCI-H23; 48 hours drug exposure, SRB): 25.7 µM | GI50 (NCI-H23; [3]): 11.6 µM | CC50 (NCI-H23; [5]): 56.9 µM | GI50 (NCI-H23; [4]): 11.5 µM | TGI (A549/ATCC; 48 hours drug exposure, SRB): 15.0 µM | LC50 (concentration killing 50% of cells) (A549/ATCC; [2]): 41.8 µM | GI50 (A549/ATCC; [3]): 3.8 µM | GI50 (A549/ATCC; [4]): 3.8 µM | TGI (HOP-62; 48 hours drug exposure, SRB): 33.2 µM | GI50 (HOP-62; [3]): 18 µM | CC50 (HOP-62; [5]): 61.2 µM | GI50 (HOP-62; [4]): 18.2 µM | TGI (NCI-H322M; 48 hours drug exposure, SRB): 21.4 µM | LC50 (NCI-H322M; [2]): 47.3 µM | GI50 (NCI-H322M; [3]): 8.21 µM | GI50 (NCI-H322M; [4]): 8.13 µM | IC50 (HEL299 cells): 25.9 µM | TGI (NCI-H522; 48 hours drug exposure, SRB): 32.5 µM | GI50 (NCI-H522; [3]): 15.9 µM | CC50 (NCI-H522; [5]): 66.2 µM | GI50 (NCI-H522; [4]): 15.8 µM

NC(=O)c1cccc(N)c1 [3-AB, 3-Aminobenzamide, reference compound]
IC50 [1]: 10.8 µM | IC50 (A549 cells): 13.1 µM | inhibition at 0.1 µM (PARP-1): 4% | inhibition at 1 µM (PARP-1): 10% | inhibition at 10 µM (PARP-1): 18% | IC50 (HEL299 cells): 5.98 µM

CN(C)CC(=O)Nc1ccc2[nH]c(=O)c3ccccc3c2c1 [PJ-34, reference compound]
IC50 [1]: 9.44 µM | IC50 (A549 cells): 31.7 µM | IC50 (HEL299 cells): 14.7 µM
